# Measured values reported in patent publication US11441142B2, “FLS variant having increased activity” (KONKUK UNIVERSITY INDUSTRIAL COOPERATION CORPORATION, priority 2017, dated 2022).
# Changes are numbered by the printed parent chain.
# Legend:
# Assay type in all cases: biochemical
# [1] = molecular target: T1, Pseudomonas fluorescens FLS (formolase), wild type, SEQ ID NO: 8 (Pseudomonas fluorescens, UniProt Q9F4L3, A28I/A394G/A480W/G419N/L90T/R188H/W89R); assay: kinetic parameters of FLS; settings: substrate acetaldehyde, coenzyme TPP (0.1 mM), pH 8.0, room temperature
# T1 sequence (Q9F4L3 1-563 A28I/A394G/A480W/G419N/L90T/R188H/W89R): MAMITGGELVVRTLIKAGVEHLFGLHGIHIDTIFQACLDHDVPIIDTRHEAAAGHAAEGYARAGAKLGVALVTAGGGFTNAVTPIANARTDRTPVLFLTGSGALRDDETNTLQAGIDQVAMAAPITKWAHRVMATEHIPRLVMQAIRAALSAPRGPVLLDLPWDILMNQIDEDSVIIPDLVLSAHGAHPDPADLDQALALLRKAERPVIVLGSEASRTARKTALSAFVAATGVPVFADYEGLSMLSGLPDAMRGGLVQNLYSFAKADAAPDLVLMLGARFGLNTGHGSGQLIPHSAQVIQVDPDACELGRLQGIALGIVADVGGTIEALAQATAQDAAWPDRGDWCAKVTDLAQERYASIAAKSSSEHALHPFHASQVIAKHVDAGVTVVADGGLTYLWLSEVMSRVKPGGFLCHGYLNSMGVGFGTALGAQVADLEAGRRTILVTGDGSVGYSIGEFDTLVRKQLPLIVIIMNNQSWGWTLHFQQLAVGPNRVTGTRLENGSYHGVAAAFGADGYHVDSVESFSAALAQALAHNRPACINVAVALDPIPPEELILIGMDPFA
# Description: (§1) The kinetic parameters of EtDH and EtDH:D46G were identified by reacting the EtDH and EtDH:D46G with a reaction mixture containing 100 mM glycine-NaOH buffer solution (pH 9.5), 5 mM Mg^2+, 3 mM NAD^+/NADP^+ and 0.5 to 100 mM ethanol at room temperature. The kinetic parameters of FLS and variants thereof were identified by reacting FLS and variants thereof with a reaction mixture containing 100 mM phosphate buffer solution (pH 8.0), 1 mM Mg^+, 0.1 mM TPP and 0.5 to 20 mM acetaldehyde at room temperature. The kinetic parameters of BDH and BDH:S199A were identified by reacting BDH and BDH:S199A with a reaction mixture containing 50 mM Tris-HCl buffer solution (pH 7.5), 0.2 mM NADPH, 1 mM DTT; 0.5 to 100 mM acetoin or 0.5 to 10 mM butanone at room temperature. The Km and kcat values were identified using nonlinear regression fitting of the Michaelis-Menten equation and the fitting were repeated three times.
# (§2) In order to compare the catalytic efficiencies via measurement of kinetic parameters of cascade enzymes and variants thereof in accordance with the present disclosure, the following experiment was performed. Specifically, the kinetic parameters of EtDH and EtDH:D46G were identified by reacting EtDH and EtDH:D46G with a reaction mixture containing 100 mM glycine-NaOH buffer solution (pH 9.5), 5 mM Mg^2+, 3 mM NAD^+/NADP^+ and 0.5 to 100 mM ethanol at room temperature. […]
# [2] = molecular target: T2, Pseudomonas fluorescens FLS (formolase) variant FLS:L482S, SEQ ID NO: 10 (Pseudomonas fluorescens, UniProt Q9F4L3, A28I/A394G/A480W/G419N/L482S/L90T/R188H/W89R); assay: kinetic parameters of FLS:L482S; settings: substrate acetaldehyde
# T2 sequence (Q9F4L3 1-563 A28I/A394G/A480W/G419N/L482S/L90T/R188H/W89R): T1 sequence (Q9F4L3 1-563 A28I/A394G/A480W/G419N/L90T/R188H/W89R) with L482S
# Description: as §1, §2
# [3] = system: Pseudomonas fluorescens FLS (formolase) variant FLS:L482E, SEQ ID NO: 12; assay: kinetic parameters of FLS:L482E; settings: substrate acetaldehyde, coenzyme TPP
# Description: as §1, §2
# [4] = molecular target: T3, Pseudomonas fluorescens FLS (formolase) variant FLS:L482E, SEQ ID NO: 12 (Pseudomonas fluorescens, UniProt Q9F4L3, A28I/A394G/A480W/G419N/L482E/L90T/R188H/W89R); assay: kinetic parameters of FLS:L482E; settings: substrate acetaldehyde, coenzyme TPP (0.1 mM), pH 8.0, room temperature
# T3 sequence (Q9F4L3 1-563 A28I/A394G/A480W/G419N/L482E/L90T/R188H/W89R): T1 sequence (Q9F4L3 1-563 A28I/A394G/A480W/G419N/L90T/R188H/W89R) with L482E
# Description: as §1, §2
# [5] = molecular target: T4, Pseudomonas fluorescens FLS (formolase) variant FLS:L482R, SEQ ID NO: 11 (Pseudomonas fluorescens, UniProt Q9F4L3, A28I/A394G/A480W/G419N/L482R/L90T/R188H/W89R); assay: kinetic parameters of FLS:L482R; settings: substrate acetaldehyde
# T4 sequence (Q9F4L3 1-563 A28I/A394G/A480W/G419N/L482R/L90T/R188H/W89R): T1 sequence (Q9F4L3 1-563 A28I/A394G/A480W/G419N/L90T/R188H/W89R) with L482R
# Description: as §1, §2
# [6] = coenzyme TPP (0.1 mM), pH 8.0, room temperature
structure (smiles),measurement,setting,value
CC=O [Acetaldehyde],kcat/Km,[1],7.69 M⁻¹ s⁻¹
same,increase of catalyst efficiency (kcat/Km) compared to wild-type FLS,[2]; coenzyme TPP,72.95%
same,kcat/Km,[2]; [6],13.3 M⁻¹ s⁻¹
same,increase of catalyst efficiency (kcat/Km) compared to wild-type FLS,[3],25.62%
same,kcat/Km,[4],9.66 M⁻¹ s⁻¹
same,increase of catalyst efficiency (kcat/Km) compared to wild-type FLS,[5]; coenzyme TPP,37.84%
same,kcat/Km,[5]; [6],10.6 M⁻¹ s⁻¹
